This is an account of results in ChEMBL document CHEMBL4196005, “Novel butanehydrazide derivatives of purine-2,6-dione as dual PDE4/7 inhibitors with potential anti-inflammatory activity: Design, synthesis and biological evaluation” (Eur J Med Chem, 2018).

Molecules are shown by their SMILES. Active and inactive are the calls of the source. The rule behind the calls is not given here.

For assay [1], the target named is 3',5'-cyclic-AMP phosphodiesterase 4B (Homo sapiens, UniProt Q07343). Nature of the assay: Inhibition of human GST-tagged PDE4B expressed in baculovirus infected Sf9 insect cells using cAMP as substrate after 10 mins by PDE-Glo Phosphodiesterase Assay.
Chain of 3',5'-cyclic-AMP phosphodiesterase 4B (Q07343 whole entry): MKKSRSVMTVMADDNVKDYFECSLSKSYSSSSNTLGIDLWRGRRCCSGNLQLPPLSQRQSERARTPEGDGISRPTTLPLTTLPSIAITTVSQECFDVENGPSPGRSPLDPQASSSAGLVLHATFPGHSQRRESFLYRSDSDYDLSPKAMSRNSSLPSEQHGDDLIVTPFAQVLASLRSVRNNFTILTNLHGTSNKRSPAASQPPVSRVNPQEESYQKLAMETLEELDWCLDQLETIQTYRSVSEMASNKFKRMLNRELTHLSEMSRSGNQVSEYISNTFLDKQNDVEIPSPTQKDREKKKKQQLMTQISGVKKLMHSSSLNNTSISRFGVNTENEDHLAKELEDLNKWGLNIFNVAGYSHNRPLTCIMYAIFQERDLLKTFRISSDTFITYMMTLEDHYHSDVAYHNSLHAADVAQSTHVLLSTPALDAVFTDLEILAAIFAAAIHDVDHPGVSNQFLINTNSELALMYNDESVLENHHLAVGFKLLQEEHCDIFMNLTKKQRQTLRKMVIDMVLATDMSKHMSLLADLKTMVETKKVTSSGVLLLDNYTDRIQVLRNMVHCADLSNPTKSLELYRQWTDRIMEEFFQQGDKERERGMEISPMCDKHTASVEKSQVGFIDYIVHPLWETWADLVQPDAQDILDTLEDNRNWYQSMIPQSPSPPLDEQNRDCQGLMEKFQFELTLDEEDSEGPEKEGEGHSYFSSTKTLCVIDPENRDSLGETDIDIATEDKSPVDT
Another assay concerns Mus musculus. Nature of the assay: In vivo inhibition of PDE4 in Balb/c mouse assessed as plasma cAMP levels at 100 mg/kg, po after 20 mins by RIA (reference value: 80.5 pmol/ml). The format is functional. (Changes in cAMP serve as a functional read-out for many G protein-coupled receptors.)
Assay [2] has as its target T1, High affinity 3',5'-cyclic-AMP phosphodiesterase 7A (Homo sapiens, UniProt Q13946). Nature of the assay: Inhibition of human GST-tagged PDE7A expressed in baculovirus infected Sf9 insect cells using cAMP as substrate after 10 mins by PDE-Glo Phosphodiesterase Assay.
Assay [3] relates to Rattus norvegicus. Briefly: Antiinflammatory activity in albino Wistar rat assessed as inhibition of LPS-induced TNFalpha production in plasma at 50 mg/kg, ip after 1.5 hrs by ELISA relative to control. It counts as functional. Background: In an ELISA, binding on a coated surface is turned into a signal by an enzyme label.
The nature of assay [4]: Inhibition of PDE4 in human HUT78 cell lysate using cAMP as substrate after 20 mins by scintillation proximity assay. A general note: Scintillation proximity formats need no separation of bound from free tracer.
Assay [5] is described as follows: Inhibition of PDE7 in human HUT78 cell lysate using cAMP as substrate after 20 mins by scintillation proximity assay.
For assay [6], the target named is 3',5'-cyclic-AMP phosphodiesterase 4D (Homo sapiens, UniProt Q08499). Briefly: Inhibition of PDE4D3 (unknown origin) using [3H]cAMP as substrate preincubated for 5 mins followed by substrate addition and measured after 15 mins by scintillation proximity assay.
Chain of 3',5'-cyclic-AMP phosphodiesterase 4D (Q08499 whole entry): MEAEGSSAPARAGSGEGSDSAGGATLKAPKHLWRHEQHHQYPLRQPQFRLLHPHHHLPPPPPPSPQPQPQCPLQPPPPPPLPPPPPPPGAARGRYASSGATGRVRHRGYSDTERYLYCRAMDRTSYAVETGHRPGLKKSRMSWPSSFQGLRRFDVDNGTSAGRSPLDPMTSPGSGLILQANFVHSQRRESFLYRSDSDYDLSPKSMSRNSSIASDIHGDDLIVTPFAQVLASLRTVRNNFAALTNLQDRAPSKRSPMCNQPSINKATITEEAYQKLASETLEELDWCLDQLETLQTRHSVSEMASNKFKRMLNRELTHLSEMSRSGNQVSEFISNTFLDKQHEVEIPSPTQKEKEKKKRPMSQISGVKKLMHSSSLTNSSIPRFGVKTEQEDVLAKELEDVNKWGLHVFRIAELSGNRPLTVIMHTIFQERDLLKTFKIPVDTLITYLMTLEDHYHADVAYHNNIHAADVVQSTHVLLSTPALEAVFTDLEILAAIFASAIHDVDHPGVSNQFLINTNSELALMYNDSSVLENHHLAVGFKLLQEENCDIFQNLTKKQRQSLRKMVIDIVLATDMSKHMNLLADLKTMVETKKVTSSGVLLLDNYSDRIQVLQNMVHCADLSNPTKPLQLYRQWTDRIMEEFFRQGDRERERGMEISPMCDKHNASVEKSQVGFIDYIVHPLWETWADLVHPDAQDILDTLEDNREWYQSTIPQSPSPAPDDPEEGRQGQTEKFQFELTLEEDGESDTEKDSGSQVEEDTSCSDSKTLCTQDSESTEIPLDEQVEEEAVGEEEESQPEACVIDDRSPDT
Assay [7] has as its target T1, High affinity 3',5'-cyclic-AMP phosphodiesterase 7A. Nature of the assay: Inhibition of PDE7A1 (unknown origin) expressed in baculovirus infected insect cells using [3H]cAMP as substrate preincubated for 5 mins followed by substrate addition and measured after 15 mins by scintillation proximity assay.
The subject of assay [8] is Rattus norvegicus. Nature of the assay: Antiinflammatory activity in albino Wistar rat assessed as inhibition of LPS-induced TNFalpha production in plasma at 50 mg/kg, ip after 2 hrs by ELISA. The format is functional, organism-based.
For assay [9], the system named is Rattus norvegicus. Briefly: Antiinflammatory activity in albino Wistar rat assessed as inhibition of LPS-induced TNFalpha production in plasma at 50 mg/kg, ip after 1 hr by ELISA. The format is functional, organism-based.
Assay [10] in a line: Inhibition of guinea pig PDE4 using [3H]cAMP as substrate after 30 mins.
Assay [11] has as its target T1, High affinity 3',5'-cyclic-AMP phosphodiesterase 7A. Nature of the assay: Inhibition of human recombinant FLAG-tagged PDE7A expressed in African green monkey COS7 cells using [3H]cAMP as substrate after 30 mins by scintillation counting analysis. The format is cell-based.
Assay [12] is described as follows: Inhibition of human PDE4 using [3H]-cAMP as substrate after 15 mins by scintillation proximity assay.
Assay [13] deals with T1, High affinity 3',5'-cyclic-AMP phosphodiesterase 7A. Nature of the assay: Inhibition of human C-terminal FLAG-tagged PDE7A expressed in baculovirus infected Sf9 cells using [3H]-cAMP as substrate after 15 mins by scintillation proximity assay.
Assay [14] is described as follows: Inhibition of human recombinant His-tagged PDE7 expressed in baculovirus infected Sf9 insect cells using [3H]-cAMP as substrate after 60 mins by scintillation proximity assay.
A short description of assay [15]: Inhibition of PDE4 (unknown origin) using [3H]-cAMP as substrate after 60 mins by scintillation proximity assay. On the set-up: species or system Homo sapiens.

T1 sequence (Q13946 whole entry): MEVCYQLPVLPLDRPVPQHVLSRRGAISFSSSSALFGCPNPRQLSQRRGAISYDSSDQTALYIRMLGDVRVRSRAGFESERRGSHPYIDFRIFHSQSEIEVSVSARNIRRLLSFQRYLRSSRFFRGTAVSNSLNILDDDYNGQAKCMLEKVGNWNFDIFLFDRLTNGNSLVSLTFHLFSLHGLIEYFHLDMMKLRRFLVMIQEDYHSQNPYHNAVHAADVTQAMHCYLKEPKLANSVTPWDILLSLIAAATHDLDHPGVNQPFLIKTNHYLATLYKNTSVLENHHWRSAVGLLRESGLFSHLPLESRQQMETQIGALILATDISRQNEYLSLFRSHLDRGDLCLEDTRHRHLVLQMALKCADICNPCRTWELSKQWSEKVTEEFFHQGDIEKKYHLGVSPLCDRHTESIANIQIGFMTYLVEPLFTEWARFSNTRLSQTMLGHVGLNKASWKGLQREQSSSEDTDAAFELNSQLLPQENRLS

For orientation: IC50 means the concentration that gives 50% inhibition. In assay [1], `Cn1c(=O)c2nc[nH]c2n(C)c1=O.O` [THEOPHYLLINE] displayed an IC50 greater than 200 µM. For the same molecule, in the assay on Mus musculus, the Activity came to 296.9 pmol/mL.
As to `CCOc1nc2c(c(=O)n(C)c(=O)n2C)n1CCCC(=O)N/N=C/c1ccccc1`, the IC50 was 48.9 µM in [2] and 37 µM in assay [1].
Take `CCCOc1nc2c(c(=O)n(C)c(=O)n2C)n1CCCC(=O)N/N=C/c1ccc(O)cc1O`: the IC50 in assay [2] worked out at 56.1 µM; in assay [1], 116 µM.
In the case of `CCCOc1nc2c(c(=O)n(C)c(=O)n2C)n1CCCC(=O)N/N=C/c1ccc(OC)cc1O`, the results for the IC50 in assay [2] and in assay [1] were 89.3 µM and 47.8 µM, respectively.
A word on the inhibition in vivo: it is the relative decrease from the control value, in per cent. Regarding `Cn1c(=O)c2c(nc(NCCc3ccccc3)n2CCCC(=O)N/N=C/c2ccc(O)c(O)c2O)n(C)c1=O`, the IC50 in assay [2] turned out to be 3.2 µM; in [1], 1.4 µM. For the same molecule, in the assay on Rattus norvegicus [3], the inhibition in vivo at 50 mg/kg turned out to be 84%.
With `CCOc1nc2c(c(=O)n(C)c(=O)n2C)n1CCCC(=O)N/N=C/c1ccccc1OC`, the IC50 in [2] and in assay [1] was greater than 200 µM each time.
Turning to `Cn1c(=O)c2c(nc(NCc3ccccc3)n2CCCC(=O)N/N=C/c2ccccc2O)n(C)c1=O`, the IC50 in [2] was 33.6 µM; in [1] it was greater than 200 µM.
For the molecule `CCOC(=O)c1sc(Nc2nc(NCc3cc(OC)c(OC)c(OC)c3)cc(N3CCC(N(C)C)CC3)n2)nc1C`, the half-maximal inhibitory concentration (IC50) was 3 µM in [4] and 0.003 µM in assay [5].
As to `Cn1c(=O)c2c(nc(NCc3ccccn3)n2CCCC(=O)N/N=C/c2ccccc2O)n(C)c1=O`, the 50% inhibitory concentration (IC50) in assay [2] was greater than 200 µM; in [1], 7.7 µM.
Take `COc1ccc(C2=NN(C3CCCC3)C(=O)C3CC=CCC23)cc1Cl` (stereo not given): the IC50 amounted to 0.00078 µM in assay [6] and 0.018 µM in assay [7].
Regarding `Cn1c(=O)c2c(nc(NCc3ccccc3)n2CCCC(=O)N/N=C/c2ccc(O)c(O)c2O)n(C)c1=O`, the IC50 in assay [2] is 8.1 µM; in [1], 1.9 µM. Besides, the inhibition result in the assay on Rattus norvegicus [8] and in the assay on Rattus norvegicus [9] was “inactive” throughout. Further, the inhibition in vivo at 50 mg/kg with Rattus norvegicus [3] was 53%.
As for `COc1ccc(/C=N/NC(=O)CCCn2c(NCc3ccccc3)nc3c2c(=O)n(C)c(=O)n3C)c(O)c1`, the 50% inhibitory concentration (IC50) is 52.8 µM in assay [2] and 44 µM in [1].
On the same counts, the results for `Cn1c(=O)c2c(nc(NCc3ccccn3)n2CCCC(=O)N/N=C/c2ccc(O)c(O)c2O)n(C)c1=O` are 9.5 µM and 1.8 µM.
As for `CCOc1cc2cc(CO)c(CO)c(-c3ccnc(-n4nc(-c5cccnc5)c5ccccc5c4=O)c3)c2cc1OCC`, the IC50 in assay [10] was found to be 0.00013 µM; in assay [11], 1.7 µM.
Regarding `CCCOc1nc2c(c(=O)n(C)c(=O)n2C)n1CCCC(=O)N/N=C/c1ccccc1`, the concentration for half-maximal inhibition (IC50) in [2] was determined as 92.9 µM; in assay [1], 51.8 µM.
Turning to `Cn1c(=O)c2c(nc(NCc3ccco3)n2CCCC(=O)N/N=C/c2ccc(O)c(O)c2O)n(C)c1=O`, the half-inhibitory concentration (IC50) amounted to 3.8 µM in [2] and 7.4 µM in assay [1]. In the assay with Rattus norvegicus [3], the inhibition in vivo at 50 mg/kg is 88%.
Regarding `COc1ccc(-c2cc3c(n2-c2ccc(S(=O)(=O)Nc4nc(C)cc(C)n4)cc2)CCC(N2CCN(C)CC2)C3)cc1C` (stereo not given), the concentration for half-maximal inhibition (IC50) in assay [12] is 0.63 µM; in assay [13], 0.014 µM.
Take `CCOC(=O)c1sc(Nc2nc(N3CCC(O)CC3)cc(N3CCC(O)CC3)n2)nc1C`: the IC50 in [4] was determined as 3.2 µM; in assay [5], 0.06 µM.
On to `CCOc1nc2c(c(=O)n(C)c(=O)n2C)n1CCCC(=O)N/N=C/c1ccc(OC)cc1O`, for which the 50% inhibitory concentration (IC50) in assay [2] and in assay [1] was greater than 200 µM each time.
For the molecule `Cn1c(=O)c2c(nc(NCc3ccco3)n2CCCC(=O)N/N=C/c2ccc(O)cc2O)n(C)c1=O`, the IC50 in assay [2] was found to be 10.5 µM; in [1], 4.4 µM.
In the same order, the values of `CC(C)Cn1c(=O)n(C)c(=O)c2[nH]cnc21` [ISOBUTYLMETHYLXANTHINE] are 85.6 µM and 28.2 µM.
As to `COc1ccc(/C=N/NC(=O)CCCn2c(NCc3ccco3)nc3c2c(=O)n(C)c(=O)n3C)c(O)c1`, the IC50 in assay [2] is 69.8 µM; in assay [1], 70.8 µM.
As for `COc1ccc(C2CNC(=O)C2)cc1OC1CCCC1` (stereo not given) [ROLIPRAM], the IC50 in assay [2] was greater than 200 µM.
Take `Cn1c(=O)c2c(nc(NCCc3ccccc3)n2CCCC(=O)N/N=C/c2ccccc2O)n(C)c1=O`: the IC50 is 7.3 µM in assay [2] and 26.9 µM in [1].
In the case of `CCOc1nc2c(c(=O)n(C)c(=O)n2C)n1CCCC(=O)N/N=C/c1ccc(O)cc1O`, the IC50 is 141 µM in [2] and 16.2 µM in assay [1].
`CCC(C)(O)c1oc(=O)c2ccccc2c1-c1ccc(OC)c(OC2CCCC2)c1` (stereo not given): the concentration for half-maximal inhibition (IC50) in assay [14] is 3.1 µM; in [15] it was 3.8 µM.
As for `Cn1c(=O)c2c(ncn2CCCC(=O)N/N=C/c2ccccc2O)n(C)c1=O`, the half-maximal inhibitory concentration (IC50) in [2] and in [1] was greater than 200 µM in each case.
In the case of `CCOc1nc2c(c(=O)n(C)c(=O)n2C)n1CCCC(=O)N/N=C/c1ccccc1O`, the values for the IC50 in assay [2] and in assay [1] were 27.6 µM and 7.9 µM, respectively.
Consider `Cn1c(=O)c2c(ncn2CCCC(=O)N/N=C/c2ccc(O)cc2O)n(C)c1=O`, for which the IC50 in assay [2] and in assay [1] was greater than 200 µM each time.
Take `Cc1ccc([N+](=O)[O-])cc1S(=O)(=O)N(C)C`: the half-maximal inhibitory concentration (IC50) came out at 2.1 µM in assay [2] and 175 µM in assay [1].
For `CCCOc1nc2c(c(=O)n(C)c(=O)n2C)n1CCCC(=O)N/N=C/c1ccccc1O`, the IC50 in [2] is 11.7 µM; in assay [1], 31.1 µM.
For `Cn1c(=O)c2c(nc(NCc3ccco3)n2CCCC(=O)N/N=C/c2ccccc2O)n(C)c1=O`, the values for the IC50 in [2] and in assay [1] were greater than 200 µM and 12.5 µM, respectively.
Turning to `Cn1c(=O)c2c(nc(NCc3ccccc3)n2CCCC(=O)N/N=C/c2ccc(O)cc2O)n(C)c1=O`, the 50% inhibitory concentration (IC50) worked out at 116 µM in assay [2] and 5.5 µM in assay [1].
